The values below come from ChEMBL document CHEMBL1137410, “Using fragment cocktail crystallography to assist inhibitor design of Trypanosoma brucei nucleoside 2-deoxyribosyltransferase” (2006).

For the assay, the system named is Trypanosoma brucei brucei. Nature of the assay: Inhibition of Trypanosoma brucei brucei growth. The conditions noted are these: read-out: ED50 (the source's name). The class given is functional.
Consider `Cn1c(=O)ccc2ccccc21`, for which the EC50 came to 413 µM.
Turning to `Nc1cccc2cnccc12`, the EC50 came to 252 µM.
Consider `CCc1ccccc1CO`, for which the EC50 was found to be 1340 µM.
